According to patent US20260207522A1, “YEAST CELL WALL PARTICLE ENCAPSULATION OF BIODEGRADABLE PRO-PAYLOADS” (UNIVERSITY OF MASSACHUSETTS, priority 2018, published 2026):

Columns and labels:
[1] = loading into yeast cell wall particles; format: physicochemical
Experimental: To create encapsulated pro-payloads, water-insoluble pro-payloads are dissolved in a suitable solvent compatible with the glucan particles (e.g., dimethylsulfoxide, methanol, etc.). After loading the pro-payloads into glucan shells, the glucan particle pro-payload is processed to remove the solvent.
The pro-payload CS-AcA was dissolved in a suitable solvent and combined with extracted yeast cell wall particles to create encapsulated CS-AcA.
The pro-payload INH-LA was dissolved in a suitable solvent and combined with extracted yeast cell wall particles to create encapsulated INH-LA.

[2] = in vitro release assay of naproxen from YCWPs; format: physicochemical; conditions: pH 7
Experimental: The pro-payload Nap-An was dissolved in a suitable solvent and combined with extracted yeast cell wall particles to create encapsulated Nap-An.

[3] = system: H. pylori; conditions: concentration of 2 mg/L; cited from earlier work
[4] = system: C. albicans; conditions: Bard et al.; cited from earlier work
[5] = system: S. cerevisiae; conditions: Bard et al.; cited from earlier work

| Compound | amount loaded into yeast cell wall particles [1] | further results |
| --- | --- | --- |
| N[C@@H]1CON=C1O [CS, cycloserine] | ≤ 14% |  |
| NNC(=O)c1ccncc1 [INH, isoniazid] | 0% |  |
| CCCCCCCCCCCC(=O)NNC(=O)c1ccncc1 [INH-LA, isoniazid lauric acid] | up to 89% |  |
| COc1ccc2cc(C(C)C(=O)OC(=O)C(C)c3ccc4cc(OC)ccc4c3)ccc2c1 (stereo not shown) [Nap-An, naproxen anhydride] |  | 50% release time (RT50) [2]: greater than 13.5 hours |
| CC(C)=CCC/C(C)=C/CO [geraniol] |  | in vitro growth of H. pylori [3]: inhibited; growth of C. albicans strains [4]: inhibit the growth; growth of S. cerevisiae strains [5]: inhibit the growth |
| cycloserine acetylacetone [CS-AcA] | ≤ 70% |  |
| doxorubicin-isoniazid [Dox-INH] | up to 61% |  |
| doxorubicin-isophorone diisocyanate [Dox-IPDI] | up to 92% |  |
